Test results as given in patent publication US11332459B2 (TEIJIN PHARMA LIMITED, priority 2017, dated 2022).

Molecular target: T1, human TRPC6 (Homo sapiens, UniProt Q9Y210)
T1 construct: expressed in transfected cells
T1 sequence (Q9Y210 1-931): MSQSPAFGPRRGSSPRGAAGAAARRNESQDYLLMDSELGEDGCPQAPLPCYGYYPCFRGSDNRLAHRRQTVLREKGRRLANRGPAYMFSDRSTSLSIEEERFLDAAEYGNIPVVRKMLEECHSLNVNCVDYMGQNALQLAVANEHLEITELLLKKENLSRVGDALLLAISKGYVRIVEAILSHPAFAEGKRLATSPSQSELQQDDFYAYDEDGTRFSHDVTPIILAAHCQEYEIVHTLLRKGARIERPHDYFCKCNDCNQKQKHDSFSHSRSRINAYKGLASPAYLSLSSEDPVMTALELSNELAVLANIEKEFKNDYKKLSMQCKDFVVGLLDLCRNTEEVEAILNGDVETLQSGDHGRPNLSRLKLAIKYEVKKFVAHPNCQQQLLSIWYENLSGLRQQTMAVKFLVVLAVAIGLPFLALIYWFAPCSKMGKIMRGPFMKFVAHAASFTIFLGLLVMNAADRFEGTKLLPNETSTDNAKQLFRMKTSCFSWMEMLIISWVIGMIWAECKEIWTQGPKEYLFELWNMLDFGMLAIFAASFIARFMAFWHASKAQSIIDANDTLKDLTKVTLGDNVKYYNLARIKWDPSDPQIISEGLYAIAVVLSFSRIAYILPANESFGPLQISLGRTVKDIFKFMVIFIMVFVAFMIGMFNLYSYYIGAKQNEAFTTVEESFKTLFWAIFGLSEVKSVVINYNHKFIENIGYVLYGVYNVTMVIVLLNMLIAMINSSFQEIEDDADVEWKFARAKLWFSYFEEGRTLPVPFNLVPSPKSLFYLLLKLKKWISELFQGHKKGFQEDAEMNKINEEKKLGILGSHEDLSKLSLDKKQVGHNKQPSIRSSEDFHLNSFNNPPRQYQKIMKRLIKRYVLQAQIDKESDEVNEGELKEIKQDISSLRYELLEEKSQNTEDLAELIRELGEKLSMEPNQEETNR
Test: TRPC6 calcium flux assay (FLIPR, OAG-stimulated calcium influx)
Format: cell-based
Details: HEK293 cells stably transfected with human TRPC6, read-out: hTRPC6 Potency
Summary of the method: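 IC50 derived by plotting background-corrected peak fluorescence (180 s window, normalized to OAG-triggered signal vs buffer) against dose. Stable human TRPC6 HEK293 line was dye-loaded, exposed to compound 25 min, then challenged with 50 uM final OAG in 2 mM Ca2+ HEPES buffer pH 7.2, 0.5% DMSO.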

IC50 [nM] | Structure (SMILES)
7.79 | CN[C@H]1CCCN(c2nc3ccccc3n2Cc2ccc(C#N)cn2)C1 [Example 116, 6-((2-((3S)-3-(methylamino)-1-piperidinyl)-1H-benzimidazol-1-yl)methyl)-3-pyridinecarbonitrile]
> 3750 | CN[C@@H]1CCCN(c2nc3ccccc3n2Cc2ccc(C#N)cn2)C1 [Example 117, 6-((2-((3R)-3-(methylamino)-1-piperidinyl)-1H-benzimidazol-1-yl)methyl)-3-pyridinecarbonitrile]
0.855 | N#Cc1ccc(Cn2c(N3CC[C@@H](F)[C@H](N)C3)nc3ccc(OC(F)F)cc32)nc1 [Example 118, 6-((2-((3R,4R)-3-amino-4-fluoro-1-piperidinyl)-6-(difluoromethoxy)-1H-benzimidazol-1-yl)methyl)-3-pyridinecarbonitrile]
1.94 | N#Cc1ccc(Cn2c(N3CC[C@@H](F)[C@H](N)C3)nc3cc(OC(F)F)ccc32)nc1 [Example 119, 6-((2-((3R,4R)-3-amino-4-fluoro-1-piperidinyl)-5-(difluoromethoxy)-1H-benzimidazol-1-yl)methyl)-3-pyridinecarbonitrile]
3.21 | COc1cccc2c1nc(N1CC[C@@H](F)[C@H](N)C1)n2Cc1ccc(C#N)cn1 [Example 120, 6-((2-((3R,4R)-3-amino-4-fluoro-1-piperidinyl)-4-methoxy-1H-benzimidazol-1-yl)methyl)-3-pyridinecarbonitrile]
5.59 | Cc1cccc2c1nc(N1CC[C@@H](F)[C@H](N)C1)n2Cc1ccc(C#N)cn1 [Example 121, 6-((2-((3R,4R)-3-amino-4-fluoro-1-piperidinyl)-4-methyl-1H-benzimidazol-1-yl)methyl)-3-pyridinecarbonitrile]
29.9 | NC(=O)c1cnc(Cn2c(N3CC[C@H](F)[C@H](N)C3)nc3ccc(C(F)(F)F)cc32)cn1 [Example 122, 5-((2-((3R,4S)-3-amino-4-fluoro-1-piperidinyl)-6-(trifluoromethyl)-1H-benzimidazol-1-yl)methyl)-2-pyrazinecarboxamide]
252 | NC(=O)c1cnc(Cn2c(N3CC[C@H](F)[C@H](N)C3)nc3cc(C(F)(F)F)ccc32)cn1 [Example 123, 5-((2-((3R,4S)-3-amino-4-fluoro-1-piperidinyl)-5-(trifluoromethyl)-1H-benzimidazol-1-yl)methyl)-2-pyrazinecarboxamide]
0.741 | N#Cc1ccc(Cn2c(N3CC[C@@H](F)[C@H](N)C3)nc3cc(OC(F)(F)F)c(Cl)cc32)nc1 [Example 124, 6-((2-((3R,4R)-3-amino-4-fluoro-1-piperidinyl)-6-chloro-5-(trifluoromethoxy)-1H-benzimidazol-1-yl)methyl)-3-pyridinecarbonitrile]
0.389 | N#Cc1ccc(Cn2c(N3CC[C@@H](F)[C@H](N)C3)nc3cc(Cl)c(OC(F)(F)F)cc32)nc1 [Example 125, 6-((2-((3R,4R)-3-amino-4-fluoro-1-piperidinyl)-5-chloro-6-(trifluoromethoxy)-1H-benzimidazol-1-yl)methyl)-3-pyridinecarbonitrile]
0.48 | N#Cc1ccc(Cn2c(N3CC[C@@H](F)[C@H](N)C3)nc3cc(C(F)(F)F)c(Cl)cc32)nc1 [Example 126, 6-((2-((3R,4R)-3-amino-4-fluoro-1-piperidinyl)-6-chloro-5-(trifluoromethyl)-1H-benzimidazol-1-yl)methyl)-3-pyridinecarbonitrile]
0.492 | N#Cc1ccc(Cn2c(N3CC[C@@H](F)[C@H](N)C3)nc3cc(Cl)c(C(F)(F)F)cc32)nc1 [Example 127, 6-((2-((3R,4R)-3-amino-4-fluoro-1-piperidinyl)-5-chloro-6-(trifluoromethyl)-1H-benzimidazol-1-yl)methyl)-3-pyridinecarbonitrile]
> 3750 | N#Cc1ccc(Cn2c(N3CCC[C@]4(CCCCN4)C3)nc3ccccc32)nc1 [Example 129, 6-((2-((6R)-1,8-diazaspiro[5.5]undecan-8-yl)-1H-benzimidazol-1-yl)methyl)-3-pyridinecarbonitrile]
269 | N#Cc1ccc(Cn2c(N3CCC[C@@]4(CCCCN4)C3)nc3ccccc32)nc1 [Example 130, 6-((2-((6S)-1,8-diazaspiro[5.5]undecan-8-yl)-1H-benzimidazol-1-yl)methyl)-3-pyridinecarbonitrile]
82.6 | N#Cc1ccc(Cn2c(N3CC[C@H]4OCCN[C@@H]4C3)nc3ccccc32)nc1 [Example 131, 6-((2-((4aR,8aR)-hexahydro-2H-pyrido[4,3-b][1,4]oxazin-6(5H)-yl)-1H-benzimidazol-1-yl)methyl)-3-pyridinecarbonitrile]
42 | N#Cc1ccc(Cn2c(N3CC[C@@H]4OCCN[C@H]4C3)nc3ccccc32)nc1 [Example 132, 6-((2-((4aS,8aS)-hexahydro-2H-pyrido[4,3-b][1,4]oxazin-6(5H)-yl)-1H-benzimidazol-1-yl)methyl)-3-pyridinecarbonitrile]
6.98 | NC(=O)c1cnc(Cn2c(N3CC[C@@H](F)[C@H](N)C3)nc3cc(F)c(F)cc32)cn1 [Example 133, 5-((2-((3R,4R)-3-amino-4-fluoro-1-piperidinyl)-5,6-difluoro-1H-benzimidazol-1-yl)methyl)-2-pyrazinecarboxamide]
4.71 | NC(=O)c1cnc(Cn2c(N3CC[C@@H](F)[C@H](N)C3)nc3ccc(C(F)(F)F)cc32)cn1 [Example 134, 5-((2-((3R,4R)-3-amino-4-fluoro-1-piperidinyl)-6-(trifluoromethyl)-1H-benzimidazol-1-yl)methyl)-2-pyrazinecarboxamide]
> 3750 | N#Cc1ccc(Cn2c(N3CCC[C@]4(CCCN4)C3)nc3ccccc32)nc1 [Example 135, 6-((2-((5R)-1,7-diazaspiro[4.5]decan-7-yl)-1H-benzimidazol-1-yl)methyl)-3-pyridinecarbonitrile]
13.9 | N#Cc1ccc(Cn2c(N3CCC[C@@]4(CCCN4)C3)nc3ccccc32)nc1 [Example 136, 6-((2-((5S)-1,7-diazaspiro[4.5]decan-7-yl)-1H-benzimidazol-1-yl)methyl)-3-pyridinecarbonitrile]
36.2 | COc1ccc2c(c1)nc(N1CCC(F)(F)[C@H](N)C1)n2Cc1ccc(C#N)cn1 [Example 137, 6-((2-((3R)-3-amino-4,4-difluoro-1-piperidinyl)-5-methoxy-1H-benzimidazol-1-yl)methyl)-3-pyridinecarbonitrile]
0.52 | COc1ccc2nc(N3CCC(F)(F)[C@H](N)C3)n(Cc3ccc(C#N)cn3)c2c1 [Example 138, 6-((2-((3R)-3-amino-4,4-difluoro-1-piperidinyl)-6-methoxy-1H-benzimidazol-1-yl)methyl)-3-pyridinecarbonitrile]
1.91 | CN[C@H]1CCCN(c2nc3ccc(C(F)(F)F)cc3n2Cc2ccc(C#N)cn2)C1 [Example 139, 6-((2-((3S)-3-(methylamino)-1-piperidinyl)-6-(trifluoromethyl)-1H-benzimidazol-1-yl)methyl)-3-pyridinecarbonitrile]
132 | CN[C@H]1CCCN(c2nc3cc(C(F)(F)F)ccc3n2Cc2ccc(C#N)cn2)C1 [Example 140, 6-((2-((3S)-3-(methylamino)-1-piperidinyl)-5-(trifluoromethyl)-1H-benzimidazol-1-yl)methyl)-3-pyridinecarbonitrile]
13.5 | C[C@]1(N)CCCN(c2nc3ccccc3n2Cc2ccc(C#N)cn2)C1 [Example 141, 6-((2-((3S)-3-amino-3-methyl-1-piperidinyl)-1H-benzimidazol-1-yl)methyl)-3-pyridinecarbonitrile]
13.8 | COc1ccc2nc(N3CCC[C@H](N)C3)n(Cc3ccc(C#N)cn3)c2c1 [Example 142, (S)-6-((2-(3-aminopiperidin-1-yl)-6-methoxy-1H-benzo[d]imidazol-1-yl)methyl)nicotinonitrile 2,2,2-trifluoroacetate]
6.86 | COc1ccc2c(c1)nc(N1CCC[C@H](N)C1)n2Cc1ccc(C#N)cn1 [Example 143, (S)-6-((2-(3-aminopiperidin-1-yl)-5-methoxy-1H-benzo[d]imidazol-1-yl)methyl)nicotinonitrile 2,2,2-trifluoroacetate]
0.462 | N#Cc1ccc(Cn2c(N3CC[C@@H](F)[C@H](N)C3)nc3c(Cl)cc(F)cc32)nc1 [Example 144, 6-((2-((3R,4R)-3-amino-4-fluoropiperidin-1-yl)-4-chloro-6-fluoro-1H-benzo[d]imidazol-1-yl)methyl)nicotinonitrile 2,2,2-trifluoroacetate]
